Test results reported in US7250402B2, “Avermectin derivatives” (The Kitasato Institute, priority 2000, dated 2007).

Assays:
[1] = system: Caenorhabditis elegans; assay: Antiparasitic activity against Caenorhabditis elegans in 96 well microplate (movement graded 0-3, MIC); format: in vivo; settings: concentration required to give Indication 2 (or 3) for caenorhabditis elegans; 20° C., observed after 24 and 48 hours
Text: (§1) Methods for determining antiparasitic effects of the compounds disclosed according to the present invention are explained below.
(§2) As model insects for simple determination of antiparasitic and insecticidal activities, those insects are desired which can be easily obtained and bred in laboratories, and have no pathogenicity to a human. Caenorhabditis elegans, an unparasitic eelworm widely used in experiments of genetics, was used as a typical steam worm, and artemia salina used as feed for tropical fish and named Brine shrimp, was used instead of insects.
Preparation of Caenorhabditis elegans Used for Evaluation
Escherichia coli for the feed of caenorhabditis elegans (mutant having uracil requirement) was inoculated in a seed medium for E. coli to which a small amount of uracil was added, and cultured with shaking at 27° C. for 1 day. A petri dish of 6 cm diameter was filled with 10 mL of an agar medium for eelworm proliferation, and the medium was solidified. Then 0.5 mL of the culture of E. coli was spread over the medium in the dish, and the dish was incubated at 37° C. to proliferate E. coli. A piece of the agar was collected with a platinum loop from a petri dish in which caenorhabditis elegans successfully proliferated, and inoculated in petri dishes in which E. coli was proliferated. The petri dishes were incubated at 20° C. to proliferate caenorhabditis elegans. Since the life of eelworm is about 2 weeks, subculture was carried out every once a week. The eelworms grown with spread on the surface of the petri dish after 3 to 5 days from subculture were used for the experiments.
<Preparation of Agar Medium for Eelworm Proliferation>
Solution A was obtained by dissolving 0.3% of sodium chloride, 1.7% of bact-agar (DIFCO Co.), 0.5% of bact-peptone (DIFCO Co.) and 1.0% of yeast extract (DIFCO Co.) in distilled water.
Solution B was obtained by dissolving 0.5% of cholesterol in ethanol.
Solution C was obtained by dissolving 13.9% of calcium chloride in distilled water.
Solution D was obtained by dissolving 30.8% of magnesium sulfate heptahydrate in distilled water.
Solution E was obtained by dissolving 13.54% of KH2PO4 and 4.45% of K2HPO4 in distilled water.
The aforementioned Solutions A, C and D were sterilized in an autoclave at 121° C. for 20 minutes, and each solution was stored at 4° C.
The agar medium for eelworm proliferation was prepared by mixing the solutions in the following proportion: Solution A: 100 mL, Solution B: 0.1 mL, Solution C: 0.05 mL, Solution D: 0.1 mL and Solution E: 2.5 mL (without pH adjustment), and dispensing each 10 mL portion into petri dishes of 60×15 mm.
<Preparation of E. coli Seed Medium>
In distilled water, 2.0% of bact-trypton (DIFCO Co.), 0.55% of sodium chloride and 0.001% of uracil (SIGMA Co., pH 7.4) were dissolved, and the solution was sterilized in an autoclave at 121° C. for 20 minutes.
(§3) Each well of a 96 well microplate was filled with the solution of the test compound (methanol as a solvent), and the solvent was removed using a vacuum pump, then 250 μl of the assay medium was added to each wells (the assay medium was prepared by dissolving 7.5 mM sodium hydrogencarbonate, 7.5 mM potassium chloride, 7.5 mM calcium chloride dihydrate and 7.5 mM magnesium sulfate heptahydrate in distilled water and adding 0.01% of lecithin to the solution), and then the microplate was shaken using a microplate mixer for 15 minutes. To each well, a few individuals of caenorhabditis elegans were added by softly rubbing the surface of the agar using a toothpick, or a few individuals of artemia salina were added together with 50 μl of the buffer. The microplate was incubated at 20° C., and then the insects were observed after 24 and 48 hours under a microscope (magnification of 40×). The results were compared to those obtained without addition of the test compound, and evaluated by 4 grades.
(§4) The evaluation results were shown by indications of 4 grades from 0 to 3.
1: A little week movements […]

[2] = system: artemia salina; assay: Insecticidal model activity against artemia salina (Brine shrimp) in 96 well microplate (movement graded 0-3, MIC); format: in vivo; settings: concentration required to give Indication 2 (or 3) for artemia salina; 20° C., observed after 24 and 48 hours
Text: as §1, §2
<Preparation of Artemia salina Used for Evaluation>
To a buffer for artemia salina (obtained by dissolving 0.24% of Tris, 2.57% of sodium chloride, 0.47% of magnesium chloride, 0.07% of potassium chloride, 0.02% of sodium carbonate, 0.64% of magnesium sulfate and 0.11% of calcium chloride in distilled water and adjusting the pH to 7.1 with hydrochloric acid), dried eggs of artemia salina [Tetra Brine Shrimp Eggs, Warner Lambert Co.] were added. The noprius larvae 1 or 2 days after hatching were used for the experiments.
as §3, §4
1: A little week movements
Of the 4 grades, Indications 3 and 2 were judged as effective, and Indications 1 and 0 as ineffective. In Table 7, the values for each compound are minimum inhibitory concentrations (MIC) which were required to give Indication 2 (or 3) for caenorhabditis elegans or artemia salina. In Table 7, caenorhabditis elegans and artemia salina are abbreviated as C.E. and A.S., respectively.

Row | Compound | C.E. minimum inhibitory concentrations (MIC) [1] [ng/mL] | A.S. minimum inhibitory concentrations (MIC) [2] [ng/mL]
1 | CC[C@H](C)[C@H]1O[C@]2(C=C[C@@H]1C)C[C@@H]1C[C@@H](C/C=C(\C)[C@@H](O[C@H]3C[C@H](OC)[C@@H](O)[C@H](C)O3)[C@@H](C)/C=C/C=C3\CO[C@@H]4[C@H](O)C(C)=C[C@@H](C(=O)O1)[C@]34O)O2 [Avermectin B1a monosaccharide, avermectin B1a monosaccharide] | 2 | 2
2 | CCC(C)C1O[C@]2(C=C[C@@H]1C)C[C@@H]1CC(C/C=C(\C)[C@@H](OC3C[C@H](OC)[C@@H](OC4C[C@H](OC)[C@@H](O)[C@H](C)O4)[C@H](C)O3)[C@@H](C)/C=C/C=C3\COC4[C@H](O)C(C)=CC(C(=O)O1)[C@]34O)O2 (stereo partly drawn) [Avermectin B1a] | 2 | 0.5
3 | CCC(C)C1OC2(C=C[C@@H]1C)CC1CC(C/C=C(\C)C(O[C@H]3CC(OC)C(=CC(=O)O)C(C)O3)[C@@H](C)/C=C/C=C3\COC4C(O)C(C)=CC(C(=O)O1)[C@]34O)O2 (stereo partly drawn) [Compound 6] | 2 | 2
4 | CCC(C)C1OC2(CC[C@@H]1C)CC1CC(C/C=C(\C)C(O[C@H]3CC(OC)C(=CC#N)C(C)O3)[C@@H](C)/C=C/C=C3\COC4C(O)C(C)=CC(C(=O)O1)[C@]34O)O2 (stereo partly drawn) [Compound 22] | 2 | 2
5 | CCC(C)C1OC2(CCC1C)CC1CC(CC=C(C)C(OC3CC(OC)C(O)C(C)O3)C(C)C=CC=C3COC4C(O)C(C)=CC(C(=O)O1)C34O)O2 (stereo not drawn) [Ivermectin monosaccharide, 22,23-dihydroavermectin B1a monosaccharide] | 2 | 2
6 | Ivermectin | 2 | 2
